Earlier results, collected in US8377484B1, “Tumor encapsulation for prevention and treatment of metastatic cancer disease” (priority 2004, dated 2013).

Experiments:
[1] = tested on: human breast cancer cells
[2] = tested on: differentiated C2C12 myotubes
[3] = tested on: Cultured primary rat Schwann cells

Compound | inhibition of cancer cells proliferation [1] | promotion of BM competency ([2]; cell cultures of differentiated myotubes) | promotion of BM competency ([3]; cell cultures of glial Schwann cells) | time for laminin-based BM to form on myotube surface ([2]; incubation with 5-10 microg/ml of laminin-1) | concentration able to induce BM assembly ([3]; cultured cells in vitro)
O=c1c(-c2ccc(O)cc2)coc2cc(O)ccc12 [daidzein] | inhibit cancer cells proliferation |  |  |  | 
O=c1c(-c2ccc(O)cc2)coc2cc(O)cc(O)c12 [genistein, 5,7,4′-trihydroxyisoflavone] | inhibit cancer cells proliferation | promote BM competency | promote BM competency |  | 
EHS Laminin-1: major BM structural protein, heterotrimeric laminin from mouse EHS |  |  |  | ≤ 4 h | 2 mkg/ml
